Data set [1] is described as follows: Chemical stability of the compound in pH 4 aqueous solution assessed as degradation by measuring residual rate incubated for 24 hrs at 65 degC by HPLC analysis. It is filed as physicochemical. The following applies: read-out: Activity.
Data set [2] can be described thus: Chemical stability of the compound in pH 7.4 aqueous solution assessed as degradation by measuring residual rate incubated for 24 hrs at 65 degC by HPLC analysis. It is filed as physicochemical. The conditions noted are these: read-out: Activity.
Data set [3] is described as follows: Lipophilicity, logD of compound at pH 7.4. The conditions noted are these: buffer. It is filed as physicochemical.
Data set [4] can be described thus: Volume of distribution at steady state in CL57BL/6J mouse at 0.25 mg/kg, iv measured upto 24 hrs by LCMS/MS analysis. It is filed as ADME, organism-based. The conditions noted are these: in vivo, read-out: Vdss.
Data set [5] can be described thus: Total clearance in CL57BL/6J mouse at 0.25 mg/kg, iv measured upto 24 hrs by LCMS/MS analysis. It is filed as ADME, organism-based. The following applies: in vivo.
A short description of data set [6]: Volume of distribution at steady state in cynomolgus monkey at 0.25 mg/kg, iv pretreated with rifampicin 20 mg/kg, po 1 hr before. It is filed as ADME, organism-based, Macaca fascicularis. The following applies: in vivo, read-out: Vdss.
Data set [7] can be described thus: Volume of distribution at steady state in cynomolgus monkey at 0.25 mg/kg, iv. It is filed as ADME, organism-based, Macaca fascicularis. The following applies: in vivo, read-out: Vdss.
Data set [8] is described as follows: Total clearance in cynomolgus monkey at 0.25 mg/kg, iv pretreated with rifampicin 20 mg/kg, po 1 hr before. It is filed as ADME, organism-based, Macaca fascicularis. The conditions noted are these: in vivo.
A short description of data set [9]: Stability of the compound in rat liver S9 fraction. It is filed as ADME, subcellular.
A short description of data set [10]: Total clearance in cynomolgus monkey at 0.25 mg/kg, iv. It is filed as ADME, organism-based, Macaca fascicularis. The conditions noted are these: in vivo.
The nature of data set [11]: Urinary excretion rate in rat at 1 mg/kg, iv. The following applies: urine, read-out: Activity. It is filed as ADME, organism-based.

Here are results for ten molecules from ChEMBL document CHEMBL5537178, “Discovery of TP0628103: A Highly Potent and Selective MMP-7 Inhibitor with Reduced OATP-Mediated Clearance Designed by Shifting Isoelectric Points” (J Med Chem, 2024).

Starred links: 1 amine or outer side, 2 acyl side, 3 side chain; linkers in the order of their positions; H or OH if unused. Non-standard residues stand in square brackets, D forms with d. Residues, ends and D or L forms follow the SMILES beside them. *: point of attachment. Benzenesulfonyl(4-Cl,3-CF3) = O=S(=O)(c1ccc(Cl)c(C(F)(F)F)c1)*; γGlu = O=C(O)[C@H](CCC(=O)[*:2])N[*:1]; 4Pal = N[C@@H](Cc1ccncc1)C(=O)O; Tle = CC(C)(C)[C@H](N)C(=O)O; β3hP = O=C(O)C[C@@H]1CCCN1 Bounds are passed on as bounds.

As to `CC(C)(C)[C@H](NC(=O)[C@H](Cc1ccncc1)NC(=O)CNC(=O)CC[C@H](NS(=O)(=O)c1ccc(Cl)c(C(F)(F)F)c1)C(=O)O)C(=O)Nc1ccc(C(=O)N2CCC(C(=O)N[C@H](CCCCN)C(=O)NCCN)CC2)cc1`, the results for the remaining at 24 h in data set [1] and in [2] were 99.6% and 90.5%, respectively.

Regarding `CC(C)(C)[C@H](NC(=O)[C@H](Cc1ccncc1)NC(=O)CNC(=O)CC[C@H](NS(=O)(=O)c1ccc(Cl)c(C(F)(F)F)c1)C(=O)O)C(=O)Nc1ccc(C(=O)N2CCC(C(=O)N[C@H](CCCCN)C(=O)N3C[C@@H](N)C[C@H]3C(N)=O)CC2)cc1`, the remaining at 24 h is 97% in data set [1] and 96.2% in [2].

Regarding `CC(C)(C)[C@H](NC(=O)[C@H](Cc1ccncc1)NC(=O)CNC(=O)CC[C@H](NS(=O)(=O)c1ccc(Cl)c(C(F)(F)F)c1)C(=O)O)C(=O)Nc1ccc(C(=O)NCC2(N)CCNCC2)cc1`, the values for the remaining at 24 h in data set [1] and in [2] were 95.6% and 86.4%, respectively.

As for `CC(C)c1nc(N(C)S(C)(=O)=O)nc(-c2ccc(F)cc2)c1/C=C/[C@@H](O)C[C@@H](O)CC(=O)O` [ROSUVASTATIN], the log distribution coefficient (logD) (usually the decadic logarithm of the distribution of all forms, ionised or not, between an organic phase and buffer at a given pH) in [3] was -1.9.

With `CC(C)(C)[C@H](NC(=O)[C@H](Cc1ccncc1)NC(=O)CNC(=O)CC[C@H](NS(=O)(=O)c1ccc(Cl)c(C(F)(F)F)c1)C(=O)O)C(=O)Nc1ccc(C(=O)O)cc1`, the Vd in data set [4] worked out at 2.48 L/kg. This molecule also had a clearance in [5] of 200 mL/min/kg.

With `CC(C)(C)[C@H](NC(=O)[C@H](Cc1ccncc1)NC(=O)CNC(=O)CC[C@H](NS(=O)(=O)c1ccc(Cl)c(C(F)(F)F)c1)C(=O)O)C(=O)Nc1ccc(C(=O)N2CCC(C(=O)N[C@H](CCCNC(=N)N)C(=O)NCCN)CC2)cc1`, the remaining at 24 h in [1] was determined as 98.8%; in [2] it was 88.7%.

On to `CN(C)CCCC[C@H](NC(=O)CCN)C(=O)N1CCN(C(=O)c2ccc(NC(=O)[C@@H](NC(=O)[C@H](Cc3ccncc3)NC(=O)CNC(=O)CC[C@H](NS(=O)(=O)c3ccc(Cl)c(C(F)(F)F)c3)C(=O)O)C(C)(C)C)cc2)CC1`, for which the remaining at 24 h in data set [1] stood at 100%; in data set [2], 93.7%.

Turning to `CC(C)(C)[C@H](NC(=O)[C@H](Cc1ccncc1)NC(=O)CNC(=O)CC[C@H](NS(=O)(=O)c1ccc(Cl)c(C(F)(F)F)c1)C(=O)O)C(=O)N1CCC[C@H]1CC(N)=O` ({Benzenesulfonyl(4-Cl,3-CF3)-γGlu}-G[4Pal][Tle][β3hP]-NH2), the values for the Vd in [6] and in data set [7] were 0.208 L/kg and 0.283 L/kg, respectively. The clearance in data set [8] is 9.12 mL/min/kg; in [10] it was 24.5 mL/min/kg. In data set [9], this molecule had a Stability of less than 10%. Besides, the dose excreted in data set [11] was 5%.

Turning to `COc1ccccc1Oc1c(NS(=O)(=O)c2ccc(C(C)(C)C)cc2)nc(-c2ncccn2)nc1OCCO` [BOSENTAN], the logD in data set [3] was 2.4.

As for `CC(C)(C)[C@H](NC(=O)[C@H](Cc1ccncc1)NC(=O)CNC(=O)CC[C@H](NS(=O)(=O)c1ccc(Cl)c(C(F)(F)F)c1)C(=O)O)C(=O)Nc1ccc(C(=O)N2CCN(C(=O)[C@@H](N)CCCN)CC2)cc1`, the remaining at 24 h in [1] is 88.6%; in data set [2] it was 58.7%. Moreover, the Vd in data set [4] was 0.185 L/kg. This molecule had a clearance in [5] of 41.3 mL/min/kg.
